Results on three molecules are retold here after patent US20090239875A1, “Protection of ferulic acid and/or tetramethylpyrazine against retinal ischaemia, glaucoma and siderosis oculi” (Committee on Chinese Medicine and Pharmacy, Department of …, priority 2008, published 2009).

For data set [1], the system named is rats given experimental siderosis. Briefly: Flash ERG in experimental siderosis (intravitreous FeSO4 or iron particle). Conditions: for Effect on FeSO4 induced reduction in the b-wave amplitudes: 0.5 or 0.1 nmoles pre-administered, 25 nmole FeSO4, 3 and 5 days after siderosis, vs saline-treated animals.
Procedure: The animals were first dark adapted for at least 8 hours, anaesthetized as already described and the pupils dilated with 1% tropicamide and 2.5% phenylephrine. The animal was then placed in a stereotaxic frame and the body temperature maintained at 37° C. with an electrical blanket. A platinum wire loop was placed on the corneal surface to act as the recording electrode. A ground electrode was connected to the scruff of the back together with a reference electrode to the tongue of the animal. A strobe was placed 5 cm in front of the animal to provide a stimulus of 0.5 Hz. Fifteen consecutive responses were recorded at two-second intervals and at 10 kHz; the responses were amplified and averaged using an amplifier P511/regulated power supply RPS107/stimulator PS22 (Grass-Telefactor, Astro-Med. Inc., R1, USA). The a-wave amplitude was measured from the baseline to the trough of the a-wave and the b-wave amplitude was measured from the trough of the a-wave to the peak of the b-wave.
The Wistar rats were anesthetized with an intramuscular injection of ketamine (100 mg/kg) and xylazine (5 mg/kg), and placed in a stereotaxic frame. The chronic model of experimental siderosis was established as follows. Through a port punctured by a 20-gauge intravenous catheter (0.5 mm from the corneal limbus), an autoclaved defined iron particle was slowly and carefully implanted into the vitreous cavity of one eye of each experimental rat through the catheter sheath by the catheter inner shaft (a needle). The punctured wound was then sutured with sterilized 10-0 nylon to keep a close system. Similarly (0.5 mm from the corneal limbus) and guided by the 20-gauge intravenous catheter, an autoclaved acrylate chip was implanted into the vitreous cavity of one eye of each control rat.
Similarly, the acute model of experimental siderosis was set up utilizing various concentrations of iron sulfate with the control group being injected with saline. The animals were kept normothermic with a heated water jacket after anesthesia and were placed on an electrical blanket during recovery (both set at 37° C.).
(§2) Iron toxicity and the formation of .OH were stimulated by an intravitreous application of FeSO4 with or without the presence of the test compounds FA and/or TMP. For the dose-response iron toxicity experiments, 24 mM (72 nmoles), 8 mM (24 nmoles) and 0.8 mM (2.4 nmoles) of FeSO4 were utilized. To test drug biochemical effects on the oxidative stress caused by the experimental siderosis, an intravitreous injection of FA (100 mM) was carried out 60 minutes before siderosis. In further electro-physiological and immuohistochemical studies, with or without pre-administration of 0.5 or 0.1 nmoles of FA/TMP, a medium amount of FeSO4 (25 nmole) was chosen to induce damage due to such as an oxidative stress so as not to reach the maximal pharmacological effect.
Data set [2] deals with rats subjected to 60 min retinal ischaemia plus reperfusion (I/R). In words: Flash ERG b-wave ratio after 60 min HIOP-induced retinal ischaemia plus reperfusion. Format: in vivo, Wistar rat. The text has this: Six-week old Wistar rats (body weight: 250˜500 g) were anaesthetized with an intramuscular injection of ketamine and xylazine as described above and placed in a stereotaxic frame. The anterior chamber of one eye, with the other serving as control, was cannulated with a 30-gauge needle connected to a 0.9% saline reservoir; this caused an increase in IOP to 120 mmHg. A whitening of the iris and the fundus of the retina confirmed induction of an ischaemic insult (Block, F., et al. Gen Pharmacol. 30(3):281-7, 1997).
(§1) For electro-physiological, immuohistochemical, and molecular biological studies, drug administration was carried out with pre-administration (60 minutes before HIOP) of vehicle (saline for FA/TMP), FA (0.5 or 0.1 nmole), or TMP (0.5 nmole). The 60-minute HIOP procedure to induce ischaemic damage was carried out as defined. Intra-vitreous injection (i.v.i.) of 5 μl of each compound was given to the ‘ischaemic’ eye of each test rat using a 30-gauge needle attached to a 20 μl Hamilton syringe. As a control, the same volume of vehicle was intravitreously injected into the “ischaemic” eye of each control rat. In both cases, the fellow untreated eye acted as a normal control eye. In this case, FA, TMP, or vehicle was applied only to the eye (ipsilateral) which received ischaemia. Dose-response experiments for FA will also be performed.

For data set [3], the system named is Thy-1 immunoreactivity (retinal ganglion cells) in the ischaemic retina. In words: Thy-1 immunofluorescence of the retina after ischaemia/reperfusion. In kind it is in vivo, Wistar rat. Conditions: 0.5 nmole i.v.i. pre-treatment; 7 days after I/R. As for the experimental part:
as §1
On day 7 after retinal ischaemia pre-treated with vehicle or tested compounds, the Wistar rats were killed by an overdose of sodium pentobarbitone injected into the peritoneal cavity as mentioned earlier. Rat retinas were carefully and rapidly dissected from the eyecups with the aim of completely detaching the sensory retina from the RPEs. They were incubated in Mg^2+-free Locke's buffer containing: 154 mM NaCl, 5.6 mM KCl, 2.3 mM CaCl2, 3.6 mM NaHCO3, 5 mM N-[2-hydroxyethyl]piperazine-N′-[2-ethanesulfonic acid] (HEPES) and 5.6 mM D-glucose. […]

Data set [4] relates to hydroxyl radicals (.OH). Briefly: ROS assay in vivo (2,3-DHBA by vitreous microdialysis) in experimental siderosis.
Procedure: Iron toxicity and the formation of .OH were stimulated by an intravitreous application of FeSO4 with or without the presence of the test compounds FA and/or TMP. For the dose-response iron toxicity experiments, 24 mM (72 nmoles), 8 mM (24 nmoles) and 0.8 mM (2.4 nmoles) of FeSO4 were utilized. To test drug biochemical effects on the oxidative stress caused by the experimental siderosis, an intravitreous injection of FA (100 mM) was carried out 60 minutes before siderosis.
Trapping of hydroxyl radicals was accomplished by perfusing physiological saline containing 5 mM salicylic acid through a microdialysis probe (CMA/12, PC 14/01, CMA/Microdialysis, Stockholm, Sweden) inserted into the vitreous cavity of a rat eye after intra-vitreous implantation of either an iron or acrylate chip for the defined chronic model and its control. […] Salicylate was infused at the rate of 1.1 μl/min using a 1-ml Exmire microsyringe attached to a microdialysis pump (CMA-100, CMA/Microdialysis, Stockholm, Sweden). This was carried out every 15 or 20 minutes starting either 60 or 20 minutes before the implantation/injection and continued for 6 hours or 120 minutes following treatment, respectively. […] The hydroxyl radicals were quantified by using 8, 16, 24, 32 and 40 pmoles of 2,3-DHBA (which is photosensitive and can be dissolved in ethanol) as an internal standard.
In data set [5] the test system is ChAT immunoreactivity (cholinergic amacrine neurones) in the siderotic retina. Briefly: ChAT immunofluorescence of the retina after experimental siderosis. Conditions: 0.5 nmole i.v.i. 60 minutes before siderosis; 25 nmole FeSO4 for 5 days. In kind it is in vivo, Wistar rat.
Procedure: as §2
The time course of the experiments involved enucleation of the rat eyes and retrieval of the retinal pieces on day 1 (Western blot), day 5 (immunohistochemistry) and day 28 (histopathology) after experimental siderosis with/without each test compound.
For immunohistochemical analysis, rats were intracardially perfused first with 0.9% saline and then with 4% (w/v) paraformaldehyde. […] In order to observe the expression of ‘ROS-related enzymes’, retinal sections were incubated with primary antibody: rabbit polyclonal anti-rat manganese SOD (1:100; Upstate, NY) or rabbit anti-catalase (1:1000; Calbiochem, CA). […]
Data set [6] deals with Thy-1 mRNA. Briefly: Semi-quantitative RT-PCR of Thy-1 mRNA in the retina after ischaemia/reperfusion. In kind it is in vivo, Wistar rat. Conditions: 7 days after I/R, sham operation 100.0000, n=4. The method, then:
as §1
Levels of Thy-1 mRNAs present in the retinas were determined using a semi-quantitative RT-PCR technique. These were compared with the mRNA levels measured for the house-keeping gene β-actin as an internal standard (Nucci, C., et al. Invest Opthalmol V is Sci. 48(7):2997-3004, 2007). Seven days after sham operation alone or retinal ischaemia pre-treated with vehicle or defined chemicals, the rats were killed and the retinas removed and sonicated in TriReagent (as per manufacturer's instructions). Total retinal RNA was isolated and first strand cDNA synthesis was performed on 4 μg DNase-treated RNA (Nash, M. S., et al. Invest. Opthalmol. Vis. Sci. 40:1293-8, 1999). […]
The PCR reaction products were separated on 1.5% agarose gels using ethidium bromide for visualization. The relative abundance of each PCR product was determined by analyzing photographs of the gels by SigmaScan (Jandel Scientific, Corte Madera, Calif.). […]

Data set [7] deals with ChAT immunoreactivity (cholinergic amacrine cells) in the ischaemic retina. Briefly: ChAT immunofluorescence of the retina after ischaemia/reperfusion. Format: in vivo, Wistar rat. The conditions noted are these: 7 days reperfusion.
Procedure: On day 7 after retinal ischaemia pre-treated with vehicle or tested compounds, the Wistar rats were killed by an overdose of sodium pentobarbitone injected into the peritoneal cavity as mentioned earlier. Rat retinas were carefully and rapidly dissected from the eyecups with the aim of completely detaching the sensory retina from the RPEs. They were incubated in Mg^2+-free Locke's buffer containing: 154 mM NaCl, 5.6 mM KCl, 2.3 mM CaCl2, 3.6 mM NaHCO3, 5 mM N-[2-hydroxyethyl]piperazine-N′-[2-ethanesulfonic acid] (HEPES) and 5.6 mM D-glucose. The Locke's solution was briefly equilibrated before use with a gas mixture of 95% O2 and 5% CO2 at 37° C., pH 7.4. Retinal pieces were fixed for a further 45 minutes in 4% (w/v) paraformaldehyde in sodium phosphate buffer (0.2 M NaH2PO4.2H2O; 0.2M Na2HPO4; pH 7.4) and then transferred to 30% sucrose in sodium phosphate buffer for cryosectioning. Retinas were orientated and similarly mounted on a metal stand using O.C.T. compound (Merck Ltd) and then promptly frozen with dry ice. In this way, sections from similar areas were produced and thus the retinal sections (10 μm) had approximately the same eccentricity, which allowed direct comparison. […]
For data set [8], the system named is hydroxyl radicals (.OH). In words: Salicylate trapping / vitreous microdialysis of hydroxyl radicals (2,3-DHBA) in HIOP-induced retinal ischaemia. In kind it is in vivo, Wistar rat. The conditions noted are these: for Levels of 2,3-DHBA (.OH) in vitreous dialysate: at 60 minutes of HIOP-induced retinal ischaemia, n=4. The text has this: Rats were anesthetized and placed in a stereotaxic frame. This approach was adapted from Louzada-Junior et al with further modification. The microdilaysis tube was inserted into the vitreous cavity through the nonvascular pars plana of the sclera (0.5 mm from the corneal limbus) after it had been pre-punctured with a 25-gauge needle. This avoided the problem of bleeding into the vitreous cavity with consequent contamination of vitreous. With the microdialysis probe in position, the whole retina was subjected to HIOP-induced ischaemia for 120 minutes.
After an equilibration period of 45 min, a stable baseline was obtained. HIOP-induced retinal ischaemia was then performed. Samples were collected every 15 minutes starting 45 minutes before ischaemia and continuing for the subsequent 120-minute ischaemia. The microdialysates collected from the microdialysis probe were deposited into polyethylene vials (Microbiotech, Stockholm, Sweden) containing 15 μl of 0.1 M perchloric acid and were stored at −70° C. until analysis. The formation of .OH was quantified as the increase in 2,3-DHBA, which is the hydroxylative product of salicylic acid. Since 2,5-DHBA can also be produced via enzymatic pathways by virtue of P-450, 2,3-DHBA is considered to be a specific marker of .OH. Eluted microdialysates were directly injected into and 2,3-DHBA was analyzed by a high performance liquid chromatograph coupled with an electrochemical detector (HPLC-EC; Model LC-4C, Bioanalytical System Inc., West Lafayette, IN, USA).
The DHBA compound was oxidized using a glassy carbon working electrode (oxidation potential: +750 mV; model MF 1000, Bioanalytical System Inc., West Lafayette, IN, USA) and an Ag/AgCl reference electrode (model MW 2021, Bioanalytical System Inc., West Lafayette, IN, USA) with a special thin-layer gasket for the microbore LC-EC. In order to minimize dead volume, the column was connected directly between the micro-sampler and the working electrode. The mobile phase included 1-heptane sulfonic acid sodium salt (MW: 202.25) 3.15 g, EDTA 0.15 g, phosphoric acid 4.5 ml, triethylamine 5.25 ml, acetonitrile 255 ml, distilled water (added to 1.5 liters), pH 2.7. […] This is the first invention utilizing the defined modified microdialysis system for the measurement of .OH in the rat eye in vivo.
For electro-physiological, immuohistochemical, and molecular biological studies, drug administration was carried out with pre-administration (60 minutes before HIOP) of vehicle (saline for FA/TMP), FA (0.5 or 0.1 nmole), or TMP (0.5 nmole). The 60-minute HIOP procedure to induce ischaemic damage was carried out as defined. Intra-vitreous injection (i.v.i.) of 5 μl of each compound was given to the ‘ischaemic’ eye of each test rat using a 30-gauge needle attached to a 20 μl Hamilton syringe. […]

The subject of data set [9] is cortical cells. The conditions noted are these: 40 μM FeSO4 vs saline; n=5.
Procedure: The cortical cells to be tested were placed on a cover slip and loaded with calcium ion sensitive dye by incubation with a final concentration of 5 μM of the acetoxymethyl ester form of Fura-2 for 30 min at 37° C. in the 1 ml loading buffer. The cover slip was washed three times with buffer containing 150 mM NaCl, 5 mM KCl, 2.2 mM CaCl2, 1 mM MgCl2, 5 mM glucose, 10 mM HEPES, pH 7.4. A micropipette was pulled from a glass capillary by a micropipette puller (P-97, Sutter Instrument Co.) and the tip was polished in a microforge (o.d. 2 μm, MF-83, Narishige). The micropipette was backfilled with the test compound (40 μM FeSO4 or saline) using a fine tip syringe. The cover slip was mounted on an inverted microscope to measure single-cell fluorescence. The ejection mircropipette was positioned at a distance of 10 μm from a cell. A short pulse (0.5s) of the test compound was then applied to a single cell through the micropipette by a microinjection system (Picospritzer II, General Valve) with a pressure of 15 psi. The intracellular calcium concentration, [Ca^2+]i, was calculated using the ratio between the fluorescence at 340 nm and at 380 nm (F340/F380). Changes in the fluorescence ratio represent the changes in the [Ca^2+]i (Yang, D. M., et al. J Microsc 209: 223-227, 2003).
Data set [10] concerns glutamate release in the retina.
Procedure: Using the same microdialysis system as the ROS assay in vivo, each microdialysate was assayed for the presence of derivatized glutamate product by HPLC with a fluorescence detector (FL; model CMA/280, CMA/Microdialysis, Stockholm, Sweden). The derivatization reaction was carried out at room temperature. O-phthalaldehyde (OPA; 27 mg; Fisher Scientific, Loughborough, UK) was dissolved in 1 ml methanol, 9 ml 0.4 M potassium tetraborate (MW: 303.53; borate buffer: 1.5 g borate plus pure water adjusted to pH 9.5 with 6 M NaOH and then added with water to 100 ml) and 5 μl β-mercaptoethanol (Fisher Scientific, Loughborough, UK). The OPA stock reagent was covered in foil and stored at −20° C. for 1 month. The OPA working solution was prepared each day by diluting 1 ml of the OPA stock reagent with 3 ml of potassium tetraborate (0.4 M). […] For the HPLC separation, the detector output voltage (signal) was monitored using one data system (Scientific Information Service Corporation, Taiwan). […]
Before use, the mobile phase was filtered through a 0.22 μm filter (Millipore) using vacuum assistance. […] The detection sensitivity was 10 M. All standard samples and test samples were analyzed in duplicate.
The mark [11] stands for this setting: 0.5 nmole i.v.i. 60 min before 60 min HIOP, 3 days after I/R.
[12] abbreviates: 0.5 nmole i.v.i. 60 min before 60 min HIOP, 5 days after I/R.
Setting [13] is: 0.5 nmole i.v.i. 60 min before 60 min HIOP, 7 days after I/R.
Where [14] appears, read: 0.5 nmole i.v.i. 1 hour before ischaemia.
Where [15] appears, read: 0.5 nmole i.v.i. 60 min before ischaemia.
[16] abbreviates: FeSO4 injected five days earlier, particular example.

With `COc1cc(/C=C/C(=O)O)ccc1O` [FA, ferulic acid], in data set [1], the “Effect on FeSO4 induced reduction in the b-wave amplitudes” value is “significantly alleviated”. Besides, the “ERG b-wave ratio (ischaemic eye vs contralateral normal eye)” value in data set [2] (0.1 nmole i.v.i. 60 min before 60 min HIOP, 3 days after I/R) was 32.2402±6.3012; in data set [2] (0.1 nmole i.v.i. 60 min before 60 min HIOP, 5 days after I/R) it was 35.0948±4.6412; in [2] (0.1 nmole i.v.i. 60 min before 60 min HIOP, 7 days after I/R), 47.0775±5.5396; in data set [2] (setting [11]), 48.3576±3.1633; in data set [2] (setting [12]), 56.4287±6.9891; in data set [2] (setting [13]), 65.8600±6.0998. In addition, in [3], the “Attenuation of ischaemia-induced reduction in thickness of Thy-1 immunolabeling” value was “around 15%”. Further, the “Effect on production of OH (2,3-DHBA) in siderosis” value in data set [4] (100 μM, siderotic rats insulted by 8 mM FeSO4, vs saline) is reported as “significantly decreased”. Further, the “Effect on formation of .OH (2,3-DHBA) in siderosis” value in data set [4] (i.v.i. 60 minutes before siderosis, 8 mM FeSO4) is “dose-dependently and significantly decreased”. The “Effect on iron-induced changes in ChAT immunoreactivity” value in data set [5] is reported as “counteracted”. Further, the “Thy-1 mRNA/β-actin mRNA ratio” value was determined as 65.8968±11.9579 in data set [6] (0.1 nmole i.v.i. 1 hour before ischaemia) and 85.1745±10.3177 in data set [6] (setting [14]). The “Effect on I/R-induced changes in ChAT immunoreactivity” value in data set [7] (0.1 nmole i.v.i. 60 min before ischaemia) is “only a partial counteracting effect”; in data set [7] (setting [15]), “obviously nullified”. The Levels of 2,3-DHBA (.OH) in vitreous dialysate amounted to 3.48 pmol/15 µL perfusate in [8] (0.1 nmole pre-treatment) and 2.8574±0.7186 pmole/15 μl perfusate in data set [8] (0.5 nmole pre-treatment). For the same molecule, the “Attenuation of ischaemia-evoked increased 2,3-DHBA levels” value in [8] (0.5 nmole pre-treatment, 60 minutes of ischaemia, vs vehicle-pre-treated ischaemic eyes) was “around 2 folds”.

As for `Cc1nc(C)c(C)nc1C` [TMP, tetramethylpyrazine], the “Effect on FeSO4 induced reduction in the b-wave amplitudes” value in data set [1] is on record as “tended to alleviate”. Further, the “ERG b-wave ratio (ischaemic eye vs contralateral normal eye)” value in data set [2] (setting [11]) turned out to be 17.9250±11.7135; in data set [2] (setting [12]), 17.1500±6.8996; in [2] (setting [13]) it was 20.1750±8.5027. Moreover, in data set [6] (setting [14]), the “Thy-1 mRNA/β-actin mRNA ratio” value is given as 46.5876±14.4476. Also, the “Effect on I/R-induced changes in ChAT immunoreactivity” value in data set [7] (setting [15]) is on record as “not affected”. In data set [8] (0.5 nmole pre-treatment), the “Levels of 2,3-DHBA (.OH) in vitreous dialysate” value was 4.6865±1.2661 pmole/15 μl perfusate.

ferrous sulfate [FeSO4]: in data set [1] (8 mM FeSO4 (3 μl) intravitreous, at 2 hours), the “ERG b-wave ratio after intravitreous FeSO4” value is reported as “about 45%”. For the same molecule, in data set [1] (setting [16]), the “ERG a-wave ratio of siderotic eye to normal fellow eye” value came out at 40.56% and the “ERG b-wave ratio of siderotic eye to normal fellow eye” value worked out at 30.70%. For the same molecule, the “Change in [Ca^2+]i (fura-2 ratio F340/F380)” value in [9] was “significant increase”. Further, the “2,3-DHBA formed” value in [4] (20 minutes after injection of 8 mM FeSO4) came out at 91.23 pmol. In addition, in data set [10] (24 mM and/or 8 mM FeSO4, peaks 20 and 40 minutes after siderosis, vs saline), the “Glutamate release in the retina” value is “dose-dependent release of glutamate”. In data set [10] (20 minutes after ferrous sulfate treatment (8 mM)), the “Glutamate concentration in vitreous dialysate” value came to 722 nM.
